Results on 23 molecules are retold here after ChEMBL document CHEMBL3232724, “Decreasing acidity in a series of aldose reductase inhibitors: 2-Fluoro-4-(1H-pyrrol-1-yl)phenol as a scaffold for improved membrane permeation” (Bioorg Med Chem, 2014).

The target in data set [1] is Aldo-keto reductase family 1 member A1 (Rattus norvegicus, UniProt P51635). Description: Inhibition of Fischer-344 rat kidney ALR1 using D-glucuronate as substrate by spectrophotometry.
Data set [2] has as its target Aldo-keto reductase family 1 member B1 (Rattus norvegicus, UniProt P07943). Description: Inhibition of Fischer-344 rat lens ALR2 using D, L-glyceraldehyde as substrate by spectrophotometry. In kind it is tissue-based, Lens of camera-type eye.
The species entered for another data set is Rattus norvegicus. Description: Selectivity index, ratio of IC50 for Fischer-344 rat kidney ALR1 to IC50 for Fischer-344 rat lens ALR2. It is filed as tissue-based. The note with it: Lens of camera-type eye.
Data set [3] deals with Aldo-keto reductase family 1 member B1 (Rattus norvegicus) (UniProt P07943). Description: Inhibition of Fischer-344 rat lens ALR2 using D, L-glyceraldehyde as substrate at 100 uM by spectrophotometry. It is filed as tissue-based. The note with it: Lens of camera-type eye.
Data set [4] is described as follows: Octanol-water distribution coefficient, log D of the compound at pH 8.5 by shake flask method. It is filed as physicochemical.
Data set [5] can be described thus: Inhibition of glucose-induced sorbitol accumulation in Wistar rat lens at 10 uM after 3 hrs by fluorescence assay (reference value: 755.27 +/- 19.7 nmol/g). It is filed as functional, Lens of camera-type eye.
Data set [6] is described as follows: Octanol-water distribution coefficient, log D of the compound at pH 7 by shake flask method. In kind it is physicochemical.
A short description of data set [7]: Inhibition of glucose-induced sorbitol accumulation in Wistar rat lens at 50 uM after 3 hrs by fluorescence assay (reference value: 755.27 +/- 19.7 nmol/g). It is filed as functional, Lens of camera-type eye.
Data set [8] has as its system Jejunum. Description: Apparent permeability coefficient in Sprague-Dawley rat jejunum at 100 uM. In kind it is ADME, tissue-based.
Data set [9] in a line: Octanol-water distribution coefficient, log D of the compound at pH 7.4 by shake flask method. It is filed as physicochemical.
Data set [10] in a line: Octanol-water distribution coefficient, log D of the compound at pH 9.2 by shake flask method. It is filed as physicochemical.
Data set [11] is described as follows: Octanol-water distribution coefficient, log D of the compound at pH 11 by shake flask method. In kind it is physicochemical.
Data set [12] can be described thus: Octanol-water distribution coefficient, log D of the compound at pH 8 by shake flask method. In kind it is physicochemical.
Data set [13] is described as follows: Octanol-water distribution coefficient, log D of the compound at pH 7.8 by shake flask method. It is filed as physicochemical.
Data set [14] can be described thus: Octanol-water distribution coefficient, log D of the compound at pH 12 by shake flask method. It is filed as physicochemical.
Data set [15] is described as follows: Octanol-water distribution coefficient, log D of the compound at pH 8.25 by shake flask method. It is filed as physicochemical.
For data set [16], the system named is Jejunum. The note with it: rat.
Data set [17] relates to Jejunum. Description: Apparent permeability coefficient in Sprague-Dawley rat jejunum at 10 uM. In kind it is ADME, tissue-based.

Chain of Aldo-keto reductase family 1 member A1 (P51635 whole entry, looked up): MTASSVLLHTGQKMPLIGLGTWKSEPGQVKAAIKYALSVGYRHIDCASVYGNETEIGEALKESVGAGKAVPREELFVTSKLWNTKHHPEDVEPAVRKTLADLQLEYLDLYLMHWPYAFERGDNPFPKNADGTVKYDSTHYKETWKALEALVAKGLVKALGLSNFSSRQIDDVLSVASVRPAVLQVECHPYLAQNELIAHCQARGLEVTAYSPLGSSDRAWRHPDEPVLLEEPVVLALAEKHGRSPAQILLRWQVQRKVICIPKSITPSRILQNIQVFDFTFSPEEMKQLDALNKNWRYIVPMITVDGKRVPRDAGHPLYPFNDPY

In general, IC50 refers to the point on the concentration scale where inhibition reaches its midpoint. Regarding `O=C(c1ccccc1)c1ccn(-c2ccc(O)cc2)c1`, the results for the IC50 in [1] and in data set [2] were greater than 100 µM and 55.4 µM, respectively. Besides, the Ratio IC50 in the data set listed under Rattus norvegicus is greater than 1.8.
A word on the inhibition: it is the relative decrease from the control value, in per cent. In data set [3], `O=C(c1ccccc1)c1cccn1-c1ccc(O)c(F)c1` came in with an inhibition of 37.2%.
One may read the logD as lipophilicity at a set pH, counting ionised and neutral species. Read a low logD as a more hydrophilic compound. `O=C(c1ccccc1)c1cc(C(=O)C(F)F)n(-c2ccc(O)c(F)c2)c1`: the logD is 2.62 in [4]; 3.41 in data set [6]; 3.1 in data set [9]; 1.72 in [10]; 0.1 in data set [11]; 2.98 in data set [12]. Further, the Activity in [5] was determined as 487.07 nmol/g; in data set [7], 396.89 nmol/g. The IC50 in data set [1] amounted to 12.1 µM; in data set [2], 0.443 µM. Also, the Ratio IC50 in the data set listed under Rattus norvegicus is 27.3. For the same molecule, the Papp with Jejunum [8] is on record as 6.4 ucm/s.
As for `O=C(c1ccccc1)c1ccn(-c2ccccc2O)c1`, the inhibition in data set [3] stood at 16.1%.
The same measure, in the same setting: as for `O=C(c1ccccc1)c1ccn(-c2ccc([N+](=O)[O-])c(/C=N/O)c2)c1`, the figure is 36.3%.
The same measure, in the same setting: to `O=C(c1ccccc1)c1ccn(-c2ccc(O)c(/C=N/O)c2)c1` belongs 35.3%.
As to `O=C(c1ccccc1)c1cc(C(=O)C(F)(F)F)n(-c2ccc(O)c(F)c2)c1`, the logD in data set [4] is 3.41; in data set [13], 3.5; in [14], -0.38; in data set [9], 3.86; in data set [10], 2.48; in data set [11], 0.66. Also, the results for the logD in data set [12] and in data set [15] were 3.6 and 3.3, respectively. For the same molecule, the Activity is 586.08 nmol/g in [5] and 462.49 nmol/g in [7]. Further, the IC50 stood at 20.4 µM in [1] and 1.04 µM in data set [2]. For the same molecule, in the data set listed under Rattus norvegicus, the Ratio IC50 is 19.6.
The molecule `O=C(c1ccc(-c2ccccc2)cc1)c1ccn(-c2ccc(O)c(F)c2)c1` came in with an inhibition in data set [3] of 14.2%.
In [3], `O=C(c1ccccc1)c1ccn(-c2cccc(O)c2)c1` returned an inhibition of 21.5%.
The same measure, in the same setting: as for `O=C(c1ccccc1)c1ccn(-c2cccc(/C=N/O)c2O)c1`, the figure is 23.5%; as for `O=C(c1ccccc1)c1ccn(-c2ccc(/C=N/O)c([N+](=O)[O-])c2)c1`, 60.5%; as for `O=C(c1ccccc1)c1ccn(-c2ccc(F)c(F)c2)c1`, 5.81%.
As for `O=C(c1ccccc1)c1ccn(-c2ccc(O)c(F)c2)c1`, the IC50 worked out at 38.2 µM in data set [1] and 10.1 µM in data set [2]. Moreover, the Ratio IC50 in the data set listed under Rattus norvegicus is 3.79.
`CC(C)NCC(O)COc1cccc2ccccc12` (configuration not stated) [PROPRANOLOL] had a Papp in the data set with Jejunum [16] of 11.1 ucm/s.
Consider `COc1cccc(C(=O)c2ccn(-c3ccc(O)c(F)c3)c2)c1`, for which the IC50 in data set [1] turned out to be 28.7 µM; in data set [2], 6.75 µM. Besides, the Ratio IC50 in the data set listed under Rattus norvegicus is 4.25.
On the same counts, the results for `O=C(c1ccn(-c2ccc(O)c(F)c2)c1)c1ccc(Br)cc1F` are 35.5 µM, 24.8 µM and 1.43.
On the same counts, the results for `O=C(c1cccn1-c1ccc(O)c(F)c1)C(F)(F)F` are greater than 100 µM, 73.8 µM and greater than 1.36.
Take `O=C(c1ccccc1)c1ccn(-c2ccc(/C=N/O)c(O)c2)c1`: the inhibition in data set [3] was 33.7%.
With `O=C(c1ccc(OC(F)(F)F)cc1)c1ccn(-c2ccc(O)c(F)c2)c1`, the IC50 in [1] is greater than 100 µM; in data set [2], 41.7 µM. Besides, the Ratio IC50 in the data set listed under Rattus norvegicus was greater than 2.4.
On the same counts, the results for `COc1ccc(C(=O)c2ccn(-c3ccc(O)c(F)c3)c2)cc1` are 26.2 µM, 9.23 µM and 2.84.
Consider `O=C(c1cccn1-c1ccc(O)c(F)c1)C(F)F`, for which the values for the IC50 in data set [1] and in data set [2] were greater than 100 µM and 60.8 µM, respectively. In addition, in the data set listed under Rattus norvegicus, the Ratio IC50 was greater than 1.65.
In turn, `COc1ccc(C(=O)c2cccn2-c2ccc(O)c(F)c2)cc1` returned an inhibition in data set [3] of 43.7%.
Consider `O=C1OC2(c3ccc(O)cc3Oc3cc(O)ccc32)c2ccccc21` [FLUORESCEIN], for which the Papp with Jejunum [17] came to 5.2 ucm/s.
